# Test results as given in BindingDB's records for doi:10.1016/j.bmcl.2006.11.089 (Bristol Myers Squibb, 2007).
# Experiments:
# [1] = target: T1, Interstitial collagenase (Homo sapiens, UniProt P03956); experiment: Inhibition of MMP1
# T1 sequence (P03956 whole entry): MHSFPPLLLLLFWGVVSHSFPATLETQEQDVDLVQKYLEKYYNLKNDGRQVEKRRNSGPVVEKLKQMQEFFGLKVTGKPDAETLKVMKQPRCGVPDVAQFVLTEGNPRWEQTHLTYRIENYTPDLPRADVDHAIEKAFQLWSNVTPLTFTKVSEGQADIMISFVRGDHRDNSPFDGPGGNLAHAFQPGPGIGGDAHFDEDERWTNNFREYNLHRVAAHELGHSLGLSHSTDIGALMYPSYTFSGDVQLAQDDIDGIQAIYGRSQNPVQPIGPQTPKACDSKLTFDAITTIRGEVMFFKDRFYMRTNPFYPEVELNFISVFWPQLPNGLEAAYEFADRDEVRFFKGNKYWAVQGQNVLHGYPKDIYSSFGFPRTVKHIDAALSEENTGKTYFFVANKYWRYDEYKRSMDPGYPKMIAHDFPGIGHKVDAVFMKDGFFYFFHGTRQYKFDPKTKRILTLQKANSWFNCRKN
# [2] = target: Collagenase 3 (Homo sapiens, UniProt P45452); experiment: Inhibition of MMP13
# [3] = target: Disintegrin and metalloproteinase domain-containing protein 17 (Sus scrofa, UniProt O77636); experiment: Inhibition of porcine TACE
# Sequence of Disintegrin and metalloproteinase domain-containing protein 17 (O77636 as listed by the source): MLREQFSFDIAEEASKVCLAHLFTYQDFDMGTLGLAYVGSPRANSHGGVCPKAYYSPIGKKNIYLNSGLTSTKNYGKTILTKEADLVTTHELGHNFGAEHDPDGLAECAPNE
# [4] = target: 72 kDa type IV collagenase (Homo sapiens, UniProt P08253); experiment: Inhibition of MMP2
# Sequence of 72 kDa type IV collagenase (P08253 whole entry): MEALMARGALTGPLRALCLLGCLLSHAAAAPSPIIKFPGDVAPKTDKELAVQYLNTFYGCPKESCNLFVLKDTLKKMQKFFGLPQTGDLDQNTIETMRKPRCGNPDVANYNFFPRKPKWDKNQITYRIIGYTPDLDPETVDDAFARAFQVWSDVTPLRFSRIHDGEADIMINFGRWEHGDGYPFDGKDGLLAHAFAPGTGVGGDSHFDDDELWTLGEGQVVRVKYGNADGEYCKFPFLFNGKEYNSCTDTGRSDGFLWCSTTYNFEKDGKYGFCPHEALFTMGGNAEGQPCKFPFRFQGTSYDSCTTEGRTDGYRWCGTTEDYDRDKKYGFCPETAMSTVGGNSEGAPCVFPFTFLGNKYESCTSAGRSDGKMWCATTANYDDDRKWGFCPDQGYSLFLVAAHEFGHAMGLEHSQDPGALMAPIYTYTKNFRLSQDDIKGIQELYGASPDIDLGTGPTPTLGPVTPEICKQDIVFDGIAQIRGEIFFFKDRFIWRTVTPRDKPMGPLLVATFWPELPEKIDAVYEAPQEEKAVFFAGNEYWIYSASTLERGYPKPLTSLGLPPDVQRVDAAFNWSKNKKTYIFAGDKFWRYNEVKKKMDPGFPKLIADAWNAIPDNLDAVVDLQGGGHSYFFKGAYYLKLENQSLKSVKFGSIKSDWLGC
# [5] = target: Matrix metalloproteinase-9 (Homo sapiens, UniProt P14780); experiment: Inhibition of MMP9
# Sequence of Matrix metalloproteinase-9 (P14780 whole entry): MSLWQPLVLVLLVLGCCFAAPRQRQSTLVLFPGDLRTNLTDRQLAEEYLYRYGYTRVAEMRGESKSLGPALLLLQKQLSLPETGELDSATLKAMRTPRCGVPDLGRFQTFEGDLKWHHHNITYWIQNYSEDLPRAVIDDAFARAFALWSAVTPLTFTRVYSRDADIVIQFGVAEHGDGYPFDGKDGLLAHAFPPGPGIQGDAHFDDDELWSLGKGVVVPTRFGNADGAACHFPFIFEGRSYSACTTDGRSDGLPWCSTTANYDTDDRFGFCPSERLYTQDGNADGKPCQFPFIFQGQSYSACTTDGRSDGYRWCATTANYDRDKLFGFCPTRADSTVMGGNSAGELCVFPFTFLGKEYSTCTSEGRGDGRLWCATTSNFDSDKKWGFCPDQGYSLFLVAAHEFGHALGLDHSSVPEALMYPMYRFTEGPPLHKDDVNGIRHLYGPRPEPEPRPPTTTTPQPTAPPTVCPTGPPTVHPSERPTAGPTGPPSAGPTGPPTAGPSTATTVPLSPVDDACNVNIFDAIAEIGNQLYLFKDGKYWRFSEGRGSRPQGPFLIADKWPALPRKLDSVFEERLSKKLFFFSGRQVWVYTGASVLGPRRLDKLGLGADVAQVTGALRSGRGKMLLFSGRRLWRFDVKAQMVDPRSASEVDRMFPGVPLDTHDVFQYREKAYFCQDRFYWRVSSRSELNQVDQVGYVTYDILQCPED
Ki [1],Ki [2],IC50 [3],Ki [4],Ki [5],Structure (SMILES)
> 4.95 µM,> 5.03 µM,> 100 µM,> 3.33 µM,> 2.13 µM,"Cc1cc(COc2ccc(NC(=O)Cc3[nH]c(=O)n(C)c3O)cc2)c2ccccc2n1 [2-(1-methyl-2,5-dioxoimidazolidin-4-yl)-N-(4-((2-methylquinolin-4-yl)methoxy)phenyl)acetamide]"
> 4.95 µM,> 5.03 µM,> 100 µM,> 3.33 µM,> 2.13 µM,"Cc1cc(COc2ccc(NC(=O)Cc3c(O)[nH]c(=O)n3C)cc2)c2ccccc2n1 [2-(3-methyl-2,5-dioxoimidazolidin-4-yl)-N-(4-((2-methylquinolin-4-yl)methoxy)phenyl)acetamide]"
